As usually defined, the IC50 is the concentration needed to halve the response being measured. A low value points to inhibition by little substance.

Molecules are shown by their SMILES.

Data on 15 compounds can be found in patent publication US6323240A, “4-phenyl-4-oxo-butanoic acid derivatives with kynurenine-3-hydroxylase inhibiting activity” (Pharmacia & Upjohn S.p.A., priority 1995, dated 2001).

Series [1] addresses T1, kynurenine-3-hydroxylase (Rattus norvegicus, UniProt O88867). The experiment in a line: Kynurenine-3-hydroxylase assay in the rat liver (radiometric, tritiated water release, rat liver mitochondrial extract). In kind it is biochemical. More on the design: Rat liver mitochondrial extract was used as enzymatic preparation for this assay; from tissue; host or cells: rat liver mitochondrial extract. As to conditions: 0.025 mM L-kynurenine, pH 8.1, 37° C., 30 min. The protocol: Kynurenine-3-hydroxylase Assay in the Rat Liver
The assay for kynurenine 3-hydroxylase was based on the enzymatic synthesis of tritiated water during the hydroxylation reaction. Radiolabeled water was quantified following selective adsorption of the isotopic substrate and its metabolite with activated charcoal.
Rat liver mitochondrial extract was used as enzymatic preparation for this assay.
The assay for kynurenine 3-hydroxylase activity was carried out at 37° C. for a time of 30 min. The reaction mixture of a total volume of […] was constituted of […] of suspended extract, 100 mM Tris/Cl^- buffer pH 8.1, 10 mM EDTA, 100 mM Kcl, 0.8 mM NADPH, 0.025 mM L-kynurenine, […] L-(3,5-^3 H)Kynurenine (10 Ci/mmol) and […] of different concentration of inhibitor solutions. After the incubation the reaction was terminated by the addition of 1 mL of 7.5% (w/v) activated charcoal, vortexed and centrifugated for 7 min.
A […] aliquot of supernatant was counted by scintillation spectroscopy in 5 ml of liquid scintillation.

The target in series [2] is T1, kynurenine-3-hydroxylase. Kind of series: Kynurenine-3-hydroxylase assay in the rat brain (conversion of L-kynurenine to L-3-hydroxykynurenine, HPLC with coulometric detection). As to conditions: rat brain homogenate; 50 μM L-kynurenine; pH 7.5; 60 min. It counts as biochemical. On the procedure: Kynurenine-3-hydroxylase Assay in the Rat Brain
Brain was homogenized in ice-cold 0.32 M sucrose and centrifuged at 12000×g for 30 min at 4° C. The pellet was washed three times with 0.32 M sucrose by centrifugation and suspended in 0.14 M KCl in 20 mM K-phosphate buffer at pH 7 (1 g tissue in 2 ml buffer).
The reaction mixture contained: 75 μl of suspended homogenate; 100 μl of substrate solution containing 50 mM K-phosphate buffer pH 7.5, 2 mM MgCl2, 0.4 mM NADPH, 50 μM L-kynurenine (final concentration), and 25 μl of different concentrations of inhibitor solutions. The reaction was stopped by addition of 200 μl of 1 M HClO4 after 60 min incubation. L-3-hydroxykynurenine formed was quantified by HPLC with coulometric detection at a working voltage of +0.2 V. The column was a 10 cm C18 reversed phase (3 μm. The mobile phase consisted of 950 ml distilled water, 20 ml acetonitrile, 9 ml triethylamine, 5.9 ml phosphoric acid, 100 mg sodium EDTA and 1.5 g heptanesulfonic acid. The flow rate was 1 ml/min.

In series [3] the test system is ionotropic excitatory aminoacid receptors. The following applies: preferentially acting at the glycine co-agonist site of the NMDA receptor; cited from earlier work.
Another series relates to CNS. The following applies: cited from earlier work.
The subject of series [4] is excitotoxic neuronal damage evoked by QUIN. As to conditions: co-injected with QUIN; cited from earlier work.
Series [5] relates to N-methyl-D-aspartate (NMDA) receptor. As to conditions: cited from earlier work.
A further series deals with neuronal cell cultures. As to conditions: relatively low concentrations; prolonged period of time or in combination with glutamate; cited from earlier work.

T1 sequence (O88867 whole entry): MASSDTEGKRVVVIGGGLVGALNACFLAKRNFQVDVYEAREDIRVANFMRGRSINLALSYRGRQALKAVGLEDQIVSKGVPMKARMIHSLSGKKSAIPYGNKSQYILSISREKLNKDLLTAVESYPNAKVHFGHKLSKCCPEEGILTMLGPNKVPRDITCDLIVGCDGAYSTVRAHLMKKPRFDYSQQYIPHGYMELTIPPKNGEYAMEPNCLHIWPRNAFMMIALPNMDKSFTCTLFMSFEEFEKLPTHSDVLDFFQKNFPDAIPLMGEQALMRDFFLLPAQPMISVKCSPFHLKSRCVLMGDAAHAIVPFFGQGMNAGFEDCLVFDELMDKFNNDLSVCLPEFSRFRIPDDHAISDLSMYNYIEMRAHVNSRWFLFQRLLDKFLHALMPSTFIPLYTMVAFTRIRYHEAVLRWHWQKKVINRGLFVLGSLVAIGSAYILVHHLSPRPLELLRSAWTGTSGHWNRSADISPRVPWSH

On to `CC(CC(=O)c1ccc(F)c(F)c1)C(=O)O` (racemic) [PNU 157952, (R,S)-2-methyl-4-(3',4'-difluorophenyl)-4-oxo-butanoic acid], for which the results for the IC50 on kynurenine-3-hydroxylase [1] and on kynurenine-3-hydroxylase [2] were 55.1 µM and 3.9 µM, respectively.
For `COC(CC(=O)c1ccc(F)c(F)c1)C(=O)O` (racemic) [PNU 158380, (R,S)-2-methoxy-4-(3',4'-difluorophenyl)-4-oxo-butanoic acid], the IC50 worked out at 42.4 µM against kynurenine-3-hydroxylase [1] and 12.6 µM at kynurenine-3-hydroxylase [2].
On kynurenine-3-hydroxylase [1], `O=C(CC(Cl)C(=O)O)c1ccc(Cl)c(Cl)c1` (racemic) [PNU 158781, (R,S)-2-chloro-4-(3',4'-dichlorophenyl)-4-oxo-butanoic acid] showed an IC50 of 13.3 µM.
With `O=C(CC(O)C(=O)O)c1cccc(Cl)c1` (racemic) [PNU 158789, (R,S)-2-hydroxy-4-(3'-chlorophenyl)-4-oxo-butanoic acid], the figures for the IC50 against kynurenine-3-hydroxylase [1] and against kynurenine-3-hydroxylase [2] were 1.8 µM and 0.45 µM, respectively.
In the case of `COC(=O)C(O)CC(=O)c1ccc(Cl)c(Cl)c1` (racemic) [PNU 161211, Methyl(R,S)-2-hydroxy-4-(3',4'-dichlorophenyl)-4-oxo-butanoate], the figures for the IC50 at kynurenine-3-hydroxylase [1] and on kynurenine-3-hydroxylase [2] were 5.6 µM and 3.1 µM, respectively.
On to `CC(CC(=O)O)C(=O)c1ccc(Cl)c(Cl)c1` (racemic) [PNU 161243, (R,S)-3-methyl-4-(3',4'-dichlorophenyl)-4-oxo-butanoic acid], for which it took 14.3 µM to reach half-maximal inhibition against kynurenine-3-hydroxylase [2] (IC50).
The compound `COC(=O)C(CC(=O)c1ccc(Cl)c(Cl)c1)Cc1ccccc1` (racemic) [PNU 167531, (R,S)-Methyl-2-benzyl-4-(3',4'-dichlorophenyl)-4-oxo-butanoate] had an IC50 on kynurenine-3-hydroxylase [1] of 1.9 µM.
As for `O=C(O)CC(C(=O)c1ccc(Cl)c(Cl)c1)c1ccccc1` (racemic) [PNU 167541, (R,S)-3-phenyl-4-(3',4'-dichlorophenyl)-4-oxo-butanoic acid], on kynurenine-3-hydroxylase [1], 55 µM corresponded to half-maximal inhibition (IC50). Against the preceding compound, the IC50 is about 29-fold higher.
Regarding `O=C(O)c1cc(=O)c2ccccc2[nH]1` [KYNA, kynurenic acid], the “antagonism of the ionotropic excitatory aminoacid receptors” value in series [3] is reported as “broad spectrum antagonist”. The “action when injected in the CNS” value with CNS was “neuroprotective agent”. For the same compound, the “prevention of QUIN-evoked excitotoxic neuronal damage” value in series [4] is recorded as “able to prevent the excitotoxic neuronal damage”.
For the compound `O=C(O)CCC(=O)c1ccc(Cl)c(Cl)c1` [PNU 156588, 4-(3',4'-dichlorophenyl)-4-oxo-butanoic acid], the figures for the IC50 at kynurenine-3-hydroxylase [1] and on kynurenine-3-hydroxylase [2] were 3.9 µM and 0.9 µM, respectively.
Take `O=C(O)CCC(=O)c1ccc(F)c(F)c1` [PNU 157720, 4-(3',4'-difluorophenyl)-4-oxo-butanoic acid]: the IC50 at kynurenine-3-hydroxylase [1] amounted to 18.3 µM; against kynurenine-3-hydroxylase [2], 3.7 µM.
At kynurenine-3-hydroxylase [1], `COC(=O)CCC(=O)c1ccc(Cl)c(Cl)c1` [PNU 158381, Methyl 4-(3',4'-dichlorophenyl)-4-oxo-butanoate] showed an IC50 of 5.7 µM.
Consider `C=C(CC(=O)c1ccc(Cl)c(Cl)c1)C(=O)O` [PNU 158432, 2-methyliden-4-(3',4'-dichlorophenyl)-4-oxo-butanoic acid], for which, on kynurenine-3-hydroxylase [1], the IC50 is 36 µM.
`O=C(O)C(O)C(Cc1ccccc1)C(=O)c1ccc(Cl)c(Cl)c1` (centres unmarked) [PNU 167536, 2-hydroxy-3-benzyl-4-(3',4'-dichlorophenyl)-4-oxo-butanoic acid] came in with an IC50 against kynurenine-3-hydroxylase [1] of 61.6 µM.
Turning to `O=C(O)c1cccnc1C(=O)O` [QUIN, quinolinic acid], the “in vivo lesions and convulsions” value with CNS (in vivo) was “convulsions and axon sparing lesions”. Besides, the “action when injected in the CNS” value with CNS was “neurotoxin”. Moreover, in series [5], the “agonism at the NMDA receptor” value is listed as “highly selective agonist”. In the series on neuronal cell cultures, the “neurotoxicity in neuronal cell cultures” value is reported as “neurotoxic”.
